According to article PMC11066876, “Late-Stage Saturation of Drug Molecules” (Journal of the American Chemical Society, 2024):
In brackets after ≈: the same amount, converted by molar mass.

Experiments:
[1] = High-throughput (direct-to-biology) human liver microsomal stability assay; conditions: for %Change After 60 min: %remaining after LSS minus before LSS at 60 min; for remaining at 0 h, 105 µM / remaining at 0.25 h, 105 µM / remaining at 0.5 h, 105 µM / remaining at 1 h, 105 µM / half-life at 105 µM: both, human, microsomes, pH 7.4
[2] = Measurement of LogPo/w (n-octanol/water, RP-HPLC); type: physicochemical; conditions: n = 3; for logP at 24 h: measured n-octanol-water partition coefficient, 30 °C; for C(oil): n-octanol phase; for C(oil) / C(aqueous): n-octanol/water 1:1, 30 °C, 24 h; for C(aqueous): water phase
[3] = Metabolic stability in human liver microsomes (Pharmaron); conditions: for CLint scaled at 1 µM / microsomal CLint at 1 µM / half-life at 1 µM: both, microsomes; for CLint scaled at 1 µM / microsomal CLint at 1 µM / half-life at 1 µM / Hepatic Extraction Ratio (ER) / Predicted Hepatic CLH: human; for Remaining Percentage 0.5 min / Remaining Percentage 5 min / Remaining Percentage 15 min / Remaining Percentage 30 min: human liver microsomes 0.5 mg/mL, +Cofactors (NADPH), 1 μM; for Predicted Hepatic CLH: QH 21 mL/min/kg, fub assumed 1
SARS-CoV M^pro = conditions: Figure 1B; cited from earlier work
[4] = parameters: method as in PMID 23701517; conditions: aqueous solubility, Figure 1B; cited from earlier work
[5] = parameters: method as in PMID 23701517; conditions: Figure 1B; cited from earlier work
[6] = Traditional t1/2, human liver microsomes, Figure 6B
[7] = in vitro t1/2, human liver microsomes, Table S21

Row | Structure (SMILES) | %Change After 60 min ([1]; human liver microsomes) [%] | remaining at 0 h, 105 µM [1] [%] | remaining at 0.25 h, 105 µM [1] [%] | remaining at 0.5 h, 105 µM [1] [%] | remaining at 1 h, 105 µM [1] [%] | logP at 24 h [2] | C(oil) [2] [mg/mL] | C(aqueous) [2] [mg/mL] | also measured
1 | Nc1c2ccccc2nc2ccccc12 [Aminacrine] | -12.39 | 100 | 83.7 | 75.1 | 66.2 |  |  |  | 
2 | COC(=O)N[C@H](C(=O)N[C@@H](Cc1ccccc1)[C@@H](O)CN(Cc1ccc(-c2ccccn2)cc1)NC(=O)[C@@H](NC(=O)OC)C(C)(C)C)C(C)(C)C [Atazanavir] | -5.37 | 100 | 84.7 | 72.9 | 65.3 |  |  |  | 
3 | CC(Cc1cccc(C(F)(F)F)c1)NCCOC(=O)c1ccccc1 (stereo not drawn) [Benfluorex] |  | 100 |  |  |  |  |  |  | 
4 | CN(Cc1ccc(C(C)(C)C)cc1)Cc1cccc2ccccc12 [Butenafine] | -2.69 | 100 | 97.8 | 95.6 | 94.9 |  |  |  | 
5 | C[C@@H](NCCCc1cccc(C(F)(F)F)c1)c1cccc2ccccc12 [Cinacalcet] | -1.7 | 100 | 67.4 | 49 | 35.4 | 4.61 | 8.962 | 0.0002 | CLint scaled at 1 µM [3]: 67.4 mL/min/kg; microsomal CLint at 1 µM [3]: 65.6 µL/min/mg; half-life at 1 µM [3, 6]: 21.1 min; half-life at 1 µM [3, 7]: 21.1 min; Hepatic Extraction Ratio (ER) [3]: 0.76; Remaining Percentage 0.5 min [3]: 100.00%; Remaining Percentage 5 min [3]: 80.88%; Remaining Percentage 15 min [3]: 55.07%; Remaining Percentage 30 min [3]: 37.55%; Predicted Hepatic CLH [3]: 16.01 mL/min/kg; half-life at 105 µM [1]: 35.4 min
6 | CCN(CC)C(=O)c1cccc(C)c1 [Diethyltoluamide] | 0.82 | 100 | 89 | 81.7 | 75.5 |  |  |  | 
7 | CC(C(=O)O)c1ccc(-c2ccccc2)c(F)c1 (stereo not drawn) [Flurbiprofen] | 7.13 | 100 | 50.1 | 25.1 | 9.28 | 1.14 | 1.858 | 0.135 | 
8 | CC(C(=O)O)c1ccc(N2Cc3ccccc3C2=O)cc1 (stereo not drawn) [Indoprofen] | -14.04 | 100 | 97.6 | 99 | 102 | 1.02 | 0.943 | 0.091 | 
9 | COc1ccc2cc(CCC(C)=O)ccc2c1 [Nabumetone, nabumetone] | 5.23 | 100 | 58 | 40.7 | 21.7 |  |  |  | 
10 | COc1ccccc1N1CCN(CC(O)COc2cccc3ccccc23)CC1 (stereo not drawn) [Naftopidil] | -25.63 | 100 | 72.2 | 58.9 | 47 | 2.04 | 1.697 | 0.016 | 
11 | O=C(C1CCCCC1)N1CC(=O)N2CCc3ccccc3C2C1 (stereo not drawn) [Praziquantel, praziquantel] | -15.26 |  |  | 31.8 | 15.3 |  |  |  | 
12 | CCCNC(C)C(=O)Nc1ccccc1C (stereo not drawn) [Prilocaine] | -13.77 | 100 | 86 | 75 | 67.4 | 1.02 | 1.306 | 0.124 | 
13 | CCC1(c2ccccc2)C(=O)NCNC1=O [Primidone] | 2.16 | 100 | 71 | 43.6 | 27.8 |  |  |  | 
14 | CC(C)NCC(O)COc1cccc2ccccc12 (stereo not drawn) [Propranolol] |  |  |  |  |  |  | 2.871 | 0.015 | 
15 | CCOC(=O)[C@H](C)C[C@@H](Cc1ccc(-c2ccccc2)cc1)NC(=O)CCC(=O)O [Sacubitril] | -1.91 | 100 | 60.2 | 34 | 22.6 | 1.47 | 1.368 | 0.047 | 
16 | CCN(Cc1ccncc1)C(=O)C(CO)c1ccccc1 (stereo not drawn) [Tropicamide] | -2.61 | 100 | 95.2 | 91.9 | 88.1 |  |  |  | 
17 | O=C(/C=C/c1ccccc1)N[C@@H](Cc1ccccc1)C(=O)N[C@@H](C[C@@H]1CCNC1=O)C(=O)C(=O)NCc1ccccc1 [compound 1] |  |  |  |  |  |  |  |  | IC50 (SARS-CoV M^pro): 1.95 µM
18 | O=C(/C=C/c1ccccc1)N[C@@H](CC1CCCCC1)C(=O)N[C@@H](C[C@@H]1CCNC1=O)C(=O)C(=O)NCc1ccccc1 [compound 2] |  |  |  |  |  |  |  |  | IC50 (SARS-CoV M^pro): 0.71 µM
19 | CC1(C)OC(=O)N(c2ccc(C(=O)Nc3cccc4cccnc34)cc2)[C@H]1c1ccccc1 [compound 3] |  |  |  |  |  |  |  |  | Solubility [4]: 5 µg/mL (≈ 11.4 µM); Plasma stability (t1/2) [5]: 312 min
20 | CC1(C)OC(=O)N([C@H]2CC[C@H](C(=O)Nc3cccc4cccnc34)CC2)[C@H]1c1ccccc1 [compound 4] |  |  |  |  |  |  |  |  | Plasma stability (t1/2) [5]: > 500 min
21 | CCCNC(C)C(=O)NC1CCCCC1C (stereo not drawn) [compound 15] |  |  |  |  |  | 1.39 | 1.569 | 0.064 | 
22 | CC(C)NCC(O)COC1CCCC2CCCCC21 (stereo not drawn) [compound 23] |  |  |  |  |  | 2.62 | 2.697 | 0.007 | 
23 | CC(C(=O)O)c1ccc(C2CCCCC2)c(F)c1 (stereo not drawn) [compound 27] |  |  |  |  |  | 1.54 | 2.453 | 0.071 | microsomal stability upon saturation ([1]; human liver microsomes, saturated congener versus parent drug, in words): increase in stability
24 | COc1ccccc1N1CCN(CC(O)COc2cccc3c2CCCC3)CC1 (stereo not drawn) [compound 28] |  |  |  |  |  | 2.1 | 1.761 | 0.014 | 
25 | CC(C(=O)O)c1ccc(N2C[C@H]3CCCC[C@H]3C2=O)cc1 (stereo partly drawn) [compound 37] |  |  |  |  |  | 0.813 | 0.897 | 0.138 | 
26 | C[C@@H](NCCCc1cccc(C(F)(F)F)c1)c1cccc2c1CCCC2 [compound 39] |  |  |  |  |  | 4.79 | 9.541 | 0.0001 | CLint scaled at 1 µM [3]: 68 mL/min/kg; microsomal CLint at 1 µM [3]: 66.2 µL/min/mg; half-life at 1 µM [3, 6]: 21 min; half-life at 1 µM [3, 7]: 21 min; Hepatic Extraction Ratio (ER) [3]: 0.76; Remaining Percentage 0.5 min [3]: 100.00%; Remaining Percentage 5 min [3]: 85.98%; Remaining Percentage 15 min [3]: 57.81%; Remaining Percentage 30 min [3]: 38.01%; Predicted Hepatic CLH [3]: 16.05 mL/min/kg; half-life at 105 µM [1]: 33.7 min
27 | CCOC(=O)[C@H](C)C[C@@H](Cc1ccc(C2CCCCC2)cc1)NC(=O)CCC(=O)O [compound 70] |  |  |  |  |  | 1.39 | 0.737 | 0.030 | 
